Measured values published in patent US20160002643A1, “Compositions And Methods To Enhance Protein Expression” (priority 2014, published 2016).
Entries after “also recorded” stand apart in the source; their conditions may differ.

How the values were obtained:
[1] = system: induction of co-transfected genes by pLKO.1c; assay: Drug inhibition experiments on pLKO.1c induction of co-transfected genes; assay type: cell-based; details: p38 inhibitor 10 μM 24 hr; Mnk1 inhibitor 2 nM 40 hr
Method: The Mnk1 inhibitor (Calbiochem) was added at 2 nM for 40 hr, and the p38 inhibitor (SB203580) was added at 10 μM for 24 hr prior to harvesting transfections.

[2] = system: EGFP, ER-mCherry or mCherry expression in 293 cells; assay: FACS / fluorescence analysis of co-transfected EGFP and mCherry expression; assay type: cell-based, human; details: 2.5 ng EGFP expression plasmid
Method: The average mean fluorescence and range of duplicate transfections of 5 μg of pLKO.1c or pLKΔHP plasmids into 293 cells was determined in the presence or absence of the indicated amount of pEGFP vector relative to the pcDNA control. […]
Calcium phosphate transfection of 293 cells was performed in triplicate with 5 μg of the pTRE plasmids and 1 μg of the transactivator as indicated. All cells were incubated with 300 ng/ml DOX at 7 hr post-transfection prior to FACS analysis at 48 hr. The mean and standard deviations of triplicates are reported relative to pTRE3G-BI-mCherry in the absence of transactivator. All values (lanes 2, 3, and 4) were highly statistically significant (p<0.0001) relative to values from lane 1 as was lane 3 relative to 4.
Transfections were performed as in panel B except that samples without the pTRE plasmids were included (pcDNA3). All transfections contained 2.5 ng of the EGFP expression plasmid. Without the transactivator, pTRE-Psi-sh elevated GFP expression ˜10-fold compared to pcDNA3 (p<0.0001; lanes 5 and 1) and ˜6-fold compared to pTRE-3G-BI-mCherry (p<0.0001; lanes 5 and 3). […]

Compound | effect of inhibitor on induction of co-transfected genes by pLKO.1c [1] | super-induction of co-transfected GFP/EGFP (in words) [2]
Nc1ncnc2n[nH]c(Nc3ccc(F)cc3)c12 [CGP57380] | no observable effect | –
C[S+]([O-])c1ccc(-c2nc(-c3ccncc3)c(-c3ccc(F)cc3)[nH]2)cc1 (stereo not drawn) [SB203580] | no effect | –
pMT2: adenoviral gene containing plasmid on a pBR322 backbone expressing Ad VA-RNA I, SEQ ID NO:07 | – | showed super-induction of GFP; also recorded: comparable to super-induction of GFP by pLKO.1e
